For the experiment, the system named is HepG2^control cells. Kind of experiment: Seahorse cellular respiration (OCR). It counts as cell-based, human. The note with it: NG-497 40 μM. The source says: NG-497 could affect respiration by limiting the availability of FAs as an energy substrate or by off-target effects leading to mitochondrial dysfunction, which is a major mechanism of drug-induced toxicity.[47] To monitor on- and off-target effects of NG-497 on cellular respiration, we performed seahorse experiments using HepG2 cells endogenously expressing (HepG2^control) or lacking ATGL (HepG2^AKO). This method allows the measurement of basal respiration (BR), maximal respiration (MR), proton leak (PL), ATP production (ATPP), spare respiratory capacity (SRC), and nonmitochondrial oxygen consumption (NMOC) after successive addition of oligomycin (ATP-synthase inhibitor), carbonyl cyanide p-trifluoromethoxyphenylhydrazone (FCCP) (uncoupler), and antimycin/rotenone (electron transport chain inhibitors). The human hepatoma cell line HepG2 was selected as a model since it is frequently used to monitor drug-induced mitochondrial dysfunction.[48] Like most cancer cell lines, HepG2 cells rely on anaerobic glycolysis for ATP generation, implicating that inhibition of lipolysis has only minor effects on respiration.
(a) HepG2 cells were treated with NG-497 (40 μM) or DMSO as control and oxygen consumption rate (OCR) was determined in Seahorse growth medium supplemented with glucose (25 mM) using the SeaHorse XF96 extracellular flux analyzer. OCR was determined after subsequent addition of 1 μM Oligomycin (ATP-synthase inhibitor), 1 μM FCCP (uncoupler), and 1 μM antimycin/rotenone (electron transport chain inhibitors). (b) Statistical analysis of basal respiration (BR), maximal respiration (MR), proton leak (PL), ATP production (ATPP), spare respiratory capacity (SRC), and nonmitochondrial oxygen consumption (NMOC) of control and NG-497-treated cells. (c) Extracellular acidification rate (ECAR) and (d) OCR of HepG2 cells were determined in Seahorse growth medium supplemented with glucose (25 mM) or galactose (10 mM). (e) Determination of the ORC of HepG2 cells grown in medium supplemented with galactose (10 mM) and NG-497 (40 μM) or DMSO as control with (f) respective statistical analysis. (g) ATGL gene was inactivated in HepG2 cells using the CRISPR/Cas9 system. Growth of cells expressing (HepG2^control) or lacking functional ATGL (HepG2^AKO) was determined using a BioRad cell analyzer. ATGL expression was analyzed by Western blotting analysis using an anti-ATGL antibody and GAPDH as a loading control (inset). (h) Acylglycerol content of HepG2^control and HepG2^AKO cells was determined by a commercial kit (TG Infinity reagent, Thermo Fisher Scientific). (i) OCR of galactose-supplemented HepG2^AKO cells and (j) the respective statistical analysis. Data are presented as mean ± standard error of the mean (SEM). Statistical significance was determined via Student’s t test (*p < 0.05; **p < 0.01; ***p < 0.001) or ANOVA followed by Bonferroni post hoc test (^#p < 0.05; ^##p < 0.01; ^###p < 0.001). […]
Sanger sequencing. The resulting constructs were transfected into HepG2 cells using the Turbofect Reagent (#R0531, Thermo Fisher Scientific) according to the manufacturer’s instructions. Cells transfected with empty pSpCas9(BB)-2A-Puro V2.0 served as negative control. 24 h after transfection, puromycin was added at a concentration of 4 µg/ml to eliminate non-transfected cells.
48 h later, the remaining cells were singularized in 96-well plates by seeding 1 cell/well. After clonal expansion for three weeks, the resulting cell lines were screened for ATGL deletion by immunoblotting using an ATGL-specific antibody (#2138S, CST). gRNA_v1 construct was chosen for further analysis.
Determination of cellular acylglycerol content. Cells were harvested in buffer A, total lipids extracted with chloroform/methanol (2/1, v/v) for 1 h at RT on a top-over wheel, and phase separation was achieved by centrifugation at 2,000 x g for 10min at RT. The organic phase was collected, dried under a stream of nitrogen, and dissolved in 2% Triton X-100 by […]
sonication. […]

Where [1] appears, read: glucose medium, tendency, not significant.

In the case of `CCOc1ccc(-c2cc(OC)cc(C(=O)OC(C)C)n2)cc1` [NG-497], for the setting “galactose (10 mM) medium”, the “change of basal OCR (BR)” value is given as −15%, the “change of maximal respiration (MR)” value was −17% and the “change of spare respiratory capacity (SRC)” value is given as −20%. Besides, under setting [1], the “change of maximal respiration (MR)” value is −11% and the “change of spare respiratory capacity (SRC)” value is −18%. Besides, where the note is “medium with glucose (25 mM)”, the “effects on respiration (OCR parameters)” value is “could not observe significant effects”.

The values above are taken from paper PMC9011347, “Small-Molecule Inhibitors Targeting Lipolysis in Human Adipocytes” (Journal of the American Chemical Society, 2022).
